Columns and labels:
[1] = Measurement of Log P values by HPLC on reversed phase columns (EEC directive 79/831 Annex V.A8); type: physicochemical; conditions: Table 1, compounds of formula (I); method [a]: LC-UV, acidic range, 0.1% formic acid in water and acetonitrile
Pyricularia oryzae = test: microbe, parasite or virus in culture; type: cell-based; conditions: 120 h; for inhibition at 20 ppm: read-out: efficacy (inhibition of fungal growth), 20 ppm of active ingredient, liquid culture, 5 days incubation; for inhibition at 50 µM: read-out: efficacy (inhibition of fungal growth), 50 μMol/l of active ingredient, liquid culture, 5 days incubation
[2] = tested on: Colletotrichum lindemuthianum; test: Colletotrichum lindemuthianum in vitro cell test; type: cell-based; conditions: 144 h, liquid culture, 6 days incubation, read-out: efficacy (inhibition of fungal growth); for inhibition at 20 ppm: 20 ppm of active ingredient; for inhibition at 50 µM: 50 μMol/l of active ingredient
How it was run: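 Inhibition of spore germination and mycelium growth, as absorbance relative to untreated wells, was read on day 6. Compounds from DMSO stocks were added to a spore suspension in glucose/peptone/yeast extract broth.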

Septoria tritici = Septoria tritici in vitro cell test; type: cell-based; conditions: Zymoseptoria tritici, 168 h; 20 ppm of active ingredient; liquid culture, 7 days incubation; read-out: efficacy (inhibition of fungal growth)
Description: B-11. Septoria tritici In Vitro Cell Test • Solvent: DMSO • Culture medium: 1 g KH2PO4 (VWR), 1 g K2HPO4 (VWR), 0.5 g Urea (VWR), 3 g KNO3 (Prolabo), 10 g saccharose (VWR), 0.5 g MgSO4, 7H2O (Sigma), 0.07 g CaCl2, 2H2O (Prolabo), 0.2 mg MnSO4, H2O (Sigma), 0.6 mg CuSO4, 5H2O (Sigma), 7.9 mg ZnSO4, 7H2O (Sigma), 0.1 mg H3BO3 (Merck), 0.14 mg NaMoO4, 2H2O (Sigma), 2 mg thiamine (Sigma), 0.1 mg biotine (VWR), 4 mg FeSO4, 7H2O (Sigma), QSP 1 liter • Inoculum: spore suspension Fungicides were solubilized in DMSO and the solution used to prepare the required range of concentrations. […] A spore suspension of S. tritici was prepared and diluted to the desired spore density. Fungicides were evaluated for their ability to inhibit spore germination and mycelium growth in liquid culture assay. The compounds were added in the desired concentration to the culture medium with spores. […] Inhibition of fungal growth was determined by comparing the absorbance values in wells containing the fungicides with the absorbance in control wells without fungicides.

Alternaria brassicae = test: In vivo preventive test on Alternaria brassicae (leaf spot on radish or cabbage); conditions: 500 ppm of active ingredient, sprayed on young radish or cabbage plants 24 h before inoculation, evaluated 3 to 4 days after inoculation, read-out: efficacy
Description: (§1) B-1. […] The active ingredients were made soluble and homogenized in a mixture of Dimethyl sulfoxide/Acetone//Tween® 80 and then diluted in water to the desired concentration. The young plants of radish or cabbage were treated by spraying the active ingredient prepared as described above. Control plants were treated only with an aqueous solution of Acetone/Dimethyl sulfoxide/Tween® 80. After 24 hours, the plants were contaminated by spraying the leaves with an aqueous suspension of Alternaria brassicae spores.

Botrytis cinerea [3] = test: In vivo preventive test on Botrytis cinerea (grey mould); conditions: 500 ppm of active ingredient, sprayed on young gherkin or cabbage plants 24 h before inoculation, evaluated 4 to 5 days after inoculation, read-out: efficacy
How it was run: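 Young plants of gherkin or cabbage were sprayed with water-diluted compound formulated in DMSO/acetone/Tween 80, with solvent-only controls. Inoculation followed 24 h later by spraying an aqueous spore suspension of Botrytis cinerea onto leaves.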

[4] = tested on: Colletotrichum lindemuthianum; test: In vivo preventive test on Colletotrichum lindemuthianum (leaf spot on bean); conditions: 168 h, 500 ppm of active ingredient, sprayed on young bean plants 24 h before inoculation, evaluated 7 days after inoculation, read-out: efficacy
Description: as §1, with “B-4.” for “B-1.”, “bean” for “radish or cabbage”, “Colletotrichum lindemuthianum” for “Alternaria brassicae”

Alternaria alternata = Alternaria alternata in vitro cell test; type: cell-based; conditions: 120 h, liquid culture, 5 days incubation, read-out: efficacy (inhibition of fungal growth); for inhibition at 50 µM: 50 μMol/l of active ingredient; for inhibition at 20 ppm: 20 ppm of active ingredient
Description: B-5. Alternaria alternata In Vitro Cell Test • Solvent: DMSO • Culture medium: 14.6 g anhydrous D-glucose (VWR), 7.1 g Mycological Peptone (Oxoid), 1.4 g granulated Yeast Extract (Merck), QSP 1 liter • Inoculum: spores suspension Fungicides were solubilized in DMSO and the solution used to prepare the required range of concentrations. […] A spore suspension of A. alternata was prepared and diluted to the desired spore density. Fungicides were evaluated for their ability to inhibit spore germination and mycelium growth in liquid culture assay. The compounds were added in the desired concentration to the culture medium with spores. After 5 days incubation, fungi-toxicity of compounds was determined by spectrometric measurement of mycelium growth. Inhibition of fungal growth was determined by comparing the absorbance values in wells containing the fungicides with the absorbance in control wells without fungicides.

Pyrenophora teres = Pyrenophora teres in vitro cell test; type: cell-based; conditions: 144 h, liquid culture, 6 days incubation, read-out: efficacy (inhibition of fungal growth); for inhibition at 50 µM: 50 μMol/l of active ingredient; for inhibition at 20 ppm: 20 ppm of active ingredient
How it was run: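 Compounds in DMSO were added to P. teres spore suspensions in glucose/peptone/yeast-extract liquid medium, testing inhibition of spore germination and mycelium growth. After 6 days, mycelium growth was read by absorbance. Inhibition was calculated relative to fungicide-free control wells.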

Botrytis cinerea [5] = test: Botrytis cinerea in vitro cell test; type: cell-based; conditions: 144 h, liquid culture, 6 days incubation, read-out: efficacy (inhibition of fungal growth); for inhibition at 50 µM: 50 μMol/l of active ingredient; for inhibition at 20 ppm: 20 ppm of active ingredient
How it was run: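 Liquid-culture germination/growth test: spore suspension in synthetic medium (salts, urea, KNO3, saccharose, trace elements, thiamine, biotin) with compound dissolved in DMSO. Absorbance of mycelial growth measured at day 6, compared with untreated wells to give inhibition.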

Fusarium culmorum = Fusarium culmorum in vitro cell test; type: cell-based; conditions: 120 h, liquid culture, 5 days incubation, read-out: efficacy (inhibition of fungal growth); for inhibition at 50 µM: 50 μMol/l of active ingredient; for inhibition at 20 ppm: 20 ppm of active ingredient
How it was run: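 Spores in liquid mineral-salts/saccharose medium exposed to compounds (DMSO ≤1% final) for 5 days. Mycelium growth measured spectrometrically, with inhibition derived from absorbance relative to fungicide-free control wells.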

## Cc1ccc(C[C@@H]2CON=C(c3cc(Cl)nnc3S(=O)(=O)c3ccc(C(F)(F)F)cc3)N2)c(C)c1 (racemic) [Compound I-018]
[1]
  chromatographic logP: 4.28
Pyricularia oryzae
  inhibition at 20 ppm: 90 to 100%
[2]
  inhibition at 20 ppm: 80 to 89%
Septoria tritici
  inhibition at 20 ppm: 90 to 100%

## Cc1ccc([C@H]2CON=C(c3c(Sc4cccc(C(F)(F)F)c4)nnc4ccccc34)N2)s1 (racemic) [Compound I-109]
[1]
  chromatographic logP: 3.81
Alternaria brassicae
  pest or weed control at 500 ppm: 90 to 100%
Botrytis cinerea [3]
  pest or weed control at 500 ppm: 90 to 100%
[4]
  pest or weed control at 500 ppm: 90 to 100%
Alternaria alternata
  inhibition at 50 µM: 90 to 100%
Pyricularia oryzae
  inhibition at 50 µM: 70 to 79%
[2]
  inhibition at 50 µM: 90 to 100%
Pyrenophora teres
  inhibition at 50 µM: 90 to 100%
Botrytis cinerea [5]
  inhibition at 50 µM: 90 to 100%
Fusarium culmorum
  inhibition at 50 µM: 80 to 89%

## COc1cccc(Sc2nnc(C)c(C)c2C2=NOC[C@@H](c3cc(C)sc3C)N2)c1 (racemic) [Compound I-079]
[1]
  chromatographic logP: 3.11
Botrytis cinerea [3]
  pest or weed control at 500 ppm: 90 to 100%
[4]
  pest or weed control at 500 ppm: 80 to 89%
Alternaria alternata
  inhibition at 50 µM: 70 to 79%
Pyricularia oryzae
  inhibition at 50 µM: 70 to 79%
[2]
  inhibition at 50 µM: 90 to 100%
Pyrenophora teres
  inhibition at 50 µM: 80 to 89%
Botrytis cinerea [5]
  inhibition at 50 µM: 90 to 100%
Fusarium culmorum
  inhibition at 50 µM: 90 to 100%

## FC(F)(F)c1cccc(Sc2nnc(Cl)cc2C2=NOC[C@H](Cc3ccc(Cl)cc3Cl)N2)c1 (racemic) [Compound I-016]
[1]
  chromatographic logP: 4.86
Pyricularia oryzae
  inhibition at 20 ppm: 80 to 89%
[2]
  inhibition at 20 ppm: 90 to 100%
Pyrenophora teres
  inhibition at 20 ppm: 90 to 100%
Botrytis cinerea [5]
  inhibition at 20 ppm: 90 to 100%
Septoria tritici
  inhibition at 20 ppm: 70 to 79%

## Clc1cccc(Sc2cnc(Cl)cc2C2=NOC[C@@H](Cc3ccc(Cl)cc3Cl)N2)c1 (racemic) [Compound I-008]
[1]
  chromatographic logP: 4.9
Alternaria alternata
  inhibition at 20 ppm: 80 to 89%
Pyricularia oryzae
  inhibition at 20 ppm: 90 to 100%
[2]
  inhibition at 20 ppm: 90 to 100%
Pyrenophora teres
  inhibition at 20 ppm: 90 to 100%
Botrytis cinerea [5]
  inhibition at 20 ppm: 90 to 100%
Fusarium culmorum
  inhibition at 20 ppm: 90 to 100%
Septoria tritici
  inhibition at 20 ppm: 90 to 100%

## Cc1ccc(C[C@H]2CON=C(c3c(Sc4cccc(Cl)c4)cnc4ccccc34)N2)c(C)c1 (racemic) [Compound I-024]
[1]
  chromatographic logP: 4.46
Alternaria alternata
  inhibition at 20 ppm: 90 to 100%
Pyricularia oryzae
  inhibition at 20 ppm: 90 to 100%
[2]
  inhibition at 20 ppm: 90 to 100%
Pyrenophora teres
  inhibition at 20 ppm: 90 to 100%
Botrytis cinerea [5]
  inhibition at 20 ppm: 90 to 100%
Fusarium culmorum
  inhibition at 20 ppm: 90 to 100%
Septoria tritici
  inhibition at 20 ppm: 90 to 100%

## Cc1ccc([C@H]2CON=C(c3c(Sc4cccc(Cl)c4)nnc4ccccc34)N2)s1 (racemic) [Compound I-135]
[1]
  chromatographic logP: 3.61
Alternaria brassicae
  pest or weed control at 500 ppm: 90 to 100%
Botrytis cinerea [3]
  pest or weed control at 500 ppm: 90 to 100%
[4]
  pest or weed control at 500 ppm: 90 to 100%
Alternaria alternata
  inhibition at 50 µM: 90 to 100%
Pyricularia oryzae
  inhibition at 50 µM: 90 to 100%
[2]
  inhibition at 50 µM: 90 to 100%
Pyrenophora teres
  inhibition at 50 µM: 90 to 100%
Botrytis cinerea [5]
  inhibition at 50 µM: 90 to 100%
Fusarium culmorum
  inhibition at 50 µM: 90 to 100%

From US20250042886A1, “BIS(HETERO)ARYL THIOETHER OXADIAZINES AS FUNGICIDAL COMPOUNDS” (Bayer Aktiengesellschaft, priority 2021, published 2025)
